Test results taken from PubChem BioAssay AID792 (PCMD, 2007).
Results filed as inconclusive are left out. Activity calls are given as the source filed them. The rule behind the calls is not given here.

Target: S. cerevisiae eIF2B mutant, luciferase reporter luminescence
Experiment: potency on yeast eIF2B luminescence signal – S. cerevisiae, mutant, wild-type, growth, dose response (AID 792)
[1] = measured here: mutant yeast growth

IC50 | IC50 [1] [µM] | IC50 (S. cerevisiae wild-type, luminescence) [µM] | SMILES
> 100 µM (inactive) | > 100 | – | Cc1cc(C)cc(OCc2nnc(SCC(=O)N3CCN(c4ccccc4)CC3)o2)c1
> 100 µM (inactive) | > 100 | – | c1ccc(-c2cc(-c3nn4c(-c5ccco5)nnc4s3)c3ccccc3n2)cc1
> 100 µM (inactive) | > 100 | – | CCC(C)Oc1cccc(OCCCCN2C(=O)NC(C)(C)C2=O)c1 (stereo not given)
> 100 µM (inactive) | > 100 | – | COCC(=O)Nc1cc(OC)c(Cl)cc1OC
> 100 µM (inactive) | > 100 | – | O=C(Cc1ccccc1)N(c1ccc(F)cc1)C1C=CS(=O)(=O)C1 (stereo not given)
> 100 µM (inactive) | > 100 | – | Cc1nnc(NC(=O)C2(c3ccccc3)CCOCC2)s1
> 100 µM (inactive) | > 100 | – | Cc1cc(NC(=O)CN2CCCC(C)C2)n(-c2nc3ccccc3s2)n1 (stereo not given)
> 100 µM (inactive) | > 100 | – | Cc1c(C(=O)Nc2nccs2)sc2nc(-c3cccs3)cc(C(F)(F)F)c12
> 100 µM (inactive) | > 100 | – | CC(C)C1Oc2ccccc2N(CC(=O)N(Cc2ccccn2)CC2CCCO2)C1=O (stereo not given)
> 100 µM (inactive) | > 100 | – | Cn1c(SCc2ccc(F)cc2)nnc1-c1cccs1
> 100 µM (inactive) | > 100 | – | COC(=O)[C@H](Cc1ccccc1)NC(=O)NCc1ccccc1OC
> 100 µM (inactive) | > 100 | – | O=c1c2ccccc2nc(-c2ccco2)n1-c1nc2ccccc2s1
> 100 µM (inactive) | > 100 | – | Cc1cc2c(c(=O)n1CC1CCCO1)C(c1ccco1)C(C#N)=C(N)O2 (stereo not given)
> 100 µM (inactive) | > 100 | – | Nc1cc2c(cc1C(=O)c1ccccc1)OCCO2
> 100 µM (inactive) | > 100 | – | CC(C)C(=O)N1CCN(C2=NS(=O)(=O)c3ccccc32)CC1
> 100 µM (inactive) | > 100 | – | COc1ccc(OC)c(C2=Nn3c(nnc3-c3cccc(OC(C)C)c3)SC2)c1
inactive | > 100 | 97.3 | O=C(Nc1cccnc1)c1noc2c1CCCCC2
> 100 µM (inactive) | > 100 | – | C=CCn1c(SCC(=O)Nc2cc(C)cc(C)c2)nnc1-c1cnccn1
> 100 µM (inactive) | > 100 | – | O=C(CCc1ccccc1)Nc1ccc(Cl)cn1
> 100 µM (inactive) | > 100 | – | N#Cc1c(N2CCOCC2)nc(-c2ccco2)c2c1CCCC2
> 100 µM (inactive) | > 100 | – | Cc1ccc(C)c(N=C2CCCN2Cc2ccccc2)c1C#N
> 100 µM (inactive) | > 100 | – | CC(=O)c1cccc(-n2nnnc2SCC(=O)Nc2cccc(NC(=O)c3ccco3)c2)c1
